Experiment: Single ascending oral dose pharmacokinetics in healthy volunteers (plasma and urine, LC MS/MS)
Assay type: in vivo, human
Settings: for dose recovered in urine: 0-48 hours urine
Excerpt: This example describes the first-in-human study of Compound I. Based on its mechanism of action, Compound I may offer a targeted therapy for patients with DCM caused by genetic or nongenetic mechanisms. The study was a randomized, double-blind, placebo-controlled, sequential group, single-ascending (oral) dose study in healthy subjects aged 18-55 years. Eight dosing cohorts, each comprising eight healthy subjects, were enrolled. Within each cohort, subjects were randomized 6:2 to Compound I: placebo.
Subjects were resident at the clinical site for up to 5 days and 4 nights, from Day-1 (the day before dosing) to Day 4, and received a single dose of Compound I or placebo on Day 1. ECG telemetry was initiated 1 hour predose and continued through 48 hours postdose (Day 3). Any subject with a predose resting HR ≥80 beats per minute was considered ineligible and not treated. […] Subjects returned for a safety follow-up visit 7 days (+1 day) after dosing.
All randomized study subjects received either Compound I or matching placebo as a single oral dose after a fasting period of at least 6 hours. Compound I drug substance is a crystalline, free-base, synthetic molecule with a molecular weight of 435.4 g/mol.
Compound I was provided as a powder for oral suspension. Placebo was provided as calcium carbonate powder. Both treatments were dosed orally as a suspension. The suspension was made using Ora-Plus® suspending vehicle (Perrigo) and a cherry syrup flavoring vehicle (Humco), mixed 50% to 50%. The suspension was followed by approximately 100 mL water. The suspension was made up within 14 days from the time in which it was dosed which was consistent with the stability data on the suspension. The suspension was made up so the volume administered to the subjects who received Compound I was the same at 20 mL.
Each subject received a dose according to the cohort in which they were enrolled. Cohorts were enrolled sequentially, with each cohort receiving an escalated dose of Compound I. The doses administered were 3 mg, 10 mg, 25 mg, 50 mg, 100 mg, 175 mg, 350 mg, and 525 mg, respectively.
The concentrations of Compound I in human plasma and urine were quantitated by high performance liquid chromatography with tandem mass spectrometric detection (LC MS/MS) (Biological sample analysis study report Alturas AD17-726). Plasma samples were extracted by protein precipitation with acetonitrile containing internal standard MYK-5654. The calibration curves were linear over concentration range of 0.500 to 1000 ng/mL with a lower limit of quantification (LLOQ) of 0.500 ng/mL.
The PK Population included all subjects who received Compound I. Blood samples were collected for PK assessments. The actual timing of the samples may have been modified and/or up to an additional 2 samples may have been requested by the SRC after review of the data from previous cohorts. It was important that PK sampling occurred as closely as possible to the scheduled time (+10%). Both blood and urine samples were used for PK assessments.
In addition, for subjects who received placebo, a single plasma sample near the predicted tmax of Compound I was evaluated to confirm the lack of circulating Compound I. Plasma concentration data for Compound I was summarized using descriptive statistics, including mean, standard deviation (SD), median, minimum, and maximum values, and percent coefficient of variation. Other PK parameters included (but were not limited to) Cmax, tmax, AUC, t1/2, and MRT. Additionally, the apparent terminal-phase terminal half-life was calculated. The dose proportionality of AUC and Cmax was explored.

## Cn1cc(S(=O)(=O)[C@@](C)(F)C2CCN(C(=O)Nc3ccon3)CC2)c(C(F)F)n1 [Compound I, (R)-4-(1-((3-(difluoromethyl)-1-methyl-1H-pyrazol-4-yl)sulfonyl)-1-fluoroethyl)-N-(isoxazol-3-yl) piperidine-1-carboxamide]
350 mg
  dose recovered in urine: approximately 6.0%
  AUC0-24 Geometric Mean: 44703.88 ng·h/mL
  AUC0-48 Median: 66430.88 ng·h/mL
  AUC0-last Geometric Mean: 73185.05 ng·h/mL
  AUC0-last Median: 76161.9 ng·h/mL
  AUC0-∞ Geometric Mean: 73626.42 ng·h/mL
  AUC0-∞ Median: 76241.22 ng·h/mL
  CL/F Geometric Mean: 4.75 L/h
  CL/F Mean: 4.95 L/h
  CL/F Median: 4.75 L/h
  Extrapolation Geometric Mean: 0.37%
  Extrapolation Mean: 0.60%
  Extrapolation Median: 0.43%
  Half-Life Lambda Z Mean: 14.66 h
  Mean Residence Time Median: 22.73 h
  Tmax Geometric Mean: 4.84 h
  Tmax Mean: 4.95 h
525 mg
  dose recovered in urine: ~8.6%
  AUC0-24 Median: 38212.84 ng·h/mL
  AUC0-48 Geometric Mean: 56964.59 ng·h/mL
  AUC0-last Geometric Mean: 68111.84 ng·h/mL
  AUC0-∞ Geometric Mean: 68514.68 ng·h/mL
  CL/F Geometric Mean: 7.66 L/h
  CL/F Mean: 8.07 L/h
  CL/F Median: 7.64 L/h
  Cmax Geometric Mean: 2294.46 ng/mL
  Cmax Mean: 2350.00 ng/mL
  Extrapolation Geometric Mean: 0.22%
  Extrapolation Mean: 0.59%
  Extrapolation Median: 0.23%
  Half-Life Lambda Z Geometric Mean: 14.70 h
  Half-Life Lambda Z Median: 13.77 h
  Tmax Geometric Mean: 4.94 h
  Tmax Mean: 4.97 h
3 mg
  AUC0-48 Geometric Mean: 676.32 ng·h/mL
  AUC0-last Median: 713.41 ng·h/mL
  AUC0-∞ Geometric Mean: 722.23 ng·h/mL
  CL/F Geometric Mean: 4.15 L/h
  CL/F Mean: 4.26 L/h
  CL/F Median: 4.22 L/h
  Extrapolation Geometric Mean: 2.71%
  Extrapolation Mean: 2.78%
  Extrapolation Median: 2.82%
  Half-Life Lambda Z Geometric Mean: 11.10 h
10 mg
  CL/F Geometric Mean: 2.99 L/h
  CL/F Mean: 3.06 L/h
  CL/F Median: 2.88 L/h
  Cmax Mean: 139.17 ng/mL
  Extrapolation Geometric Mean: 1.59%
  Extrapolation Mean: 1.90%
  Extrapolation Median: 2.24%
  Half-Life Lambda Z Mean: 13.36 h
  Mean Residence Time Geometric Mean: 21.06 h
  Tmax Geometric Mean: 4.80 h
  Tmax Mean: 4.85 h
25 mg
  AUC0-last Geometric Mean: 6924.51 ng·h/mL
  AUC0-last Mean: 7161.62 ng·h/mL
  CL/F Geometric Mean: 3.55 L/h
  CL/F Mean: 3.69 L/h
  CL/F Median: 3.32 L/h
  Extrapolation Geometric Mean: 1.45%
  Extrapolation Mean: 1.72%
  Extrapolation Median: 1.92%
  Half-Life Lambda Z Geometric Mean: 13.14 h
  Half-Life Lambda Z Mean: 13.28 h
  Mean Residence Time Geometric Mean: 20.60 h
  Mean Residence Time Median: 20.07 h
  Tmax Geometric Mean: 4.64 h
  Tmax Mean: 4.67 h
50 mg
  AUC0-last Geometric Mean: 11075.03 ng·h/mL
  AUC0-last Median: 11185.34 ng·h/mL
  AUC0-∞ Geometric Mean: 11177.07 ng·h/mL
  AUC0-∞ Median: 11204.30 ng·h/mL
  CL/F Geometric Mean: 4.47 L/h
  CL/F Mean: 4.53 L/h
  CL/F Median: 4.46 L/h
  Extrapolation Geometric Mean: 0.46%
  Extrapolation Mean: 0.91%
  Extrapolation Median: 0.46%
  Mean Residence Time Geometric Mean: 20.79 h
  Mean Residence Time Mean: 20.98 h
  Tmax Geometric Mean: 4.66 h
  Tmax Mean: 4.69 h
100 mg
  AUC0-48 Median: 21561.98 ng·h/mL
  AUC0-last Geometric Mean: 21734.19 ng·h/mL
  AUC0-last Median: 22401.00 ng·h/mL
  CL/F Geometric Mean: 4.69 L/h
  CL/F Mean: 4.76 L/h
  CL/F Median: 5.33 L/h
  Extrapolation Geometric Mean: 0.36%
  Extrapolation Mean: 5.48%
  Extrapolation Median: 0.14%
  Half-Life Lambda Z Geometric Mean: 11.08 h
  Tmax Mean: 4.50 h
175 mg
  AUC0-48 Median: 32704.35 ng·h/mL
  AUC0-last Geometric Mean: 38235.62 ng·h/mL
  CL/F Geometric Mean: 4.57 L/h
  CL/F Mean: 4.66 L/h
  CL/F Median: 4.45 L/h
  Cmax Geometric Mean: 1301.37 ng/mL
  Cmax Mean: 1316.17 ng/mL
  Extrapolation Geometric Mean: 0.14%
  Extrapolation Mean: 0.17%
  Extrapolation Median: 0.16%
  Half-Life Lambda Z Mean: 15.83 h
  Mean Residence Time Geometric Mean: 24.44 h
  Mean Residence Time Median: 24.43 h
  Tmax Geometric Mean: 5.07 h
  Tmax Mean: 5.11 h
350 mg + 525 mg
  AUC0-24 Median: 38537.03 ng·h/mL
  AUC0-∞ Mean: 74358.88 ng·h/mL
  CL/F Geometric Mean: 6.04 L/h
  CL/F Mean: 6.51 L/h
  CL/F Median: 6.10 L/h
  Extrapolation Geometric Mean: 0.29%
  Extrapolation Mean: 0.59%
  Extrapolation Median: 0.32%
  Half-Life Lambda Z Geometric Mean: 14.51 h
  Mean Residence Time Mean: 24.28 h
  Tmax Geometric Mean: 4.89 h
  Tmax Mean: 4.96 h
All doses, 95% CI 0.8358-0.9417
  dose proportionality slope (power model): 0.8888

— patent publication US20250325531A1, “TREATMENT OF SYSTOLIC DYSFUNCTION” (MyoKardia, Inc., priority 2024, published 2025)
